Test results taken from patent US20120142634A1, “Method of Treating Cancer with a Combination of a Proteasome Inhibitor and Salubrinal” (MOUNT SINAI SCHOOL OF MEDICINE OF NEW YORK UNIVERSITY, priority 2008, published 2012).
Entries after “also recorded” stand apart in the source; their conditions may differ. Where a SMILES comes first, the peptide text is derived from it. The star is where a group is joined. Cbz = O=C(OCc1ccccc1)*

Assays:
Format in all cases: cell-based
[1] = test system: HEp3 HNSCC cells; experiment: Bortezomib-induced killing, with or without Salubrinal
[2] = test system: Raji Burkitt's lymphoma cells; experiment: as above
[3] = test system: RPMI8226 cells; experiment: Cell cycle analysis by propidium iodide staining and flow cytometry; conditions: for cell death (sub-G0 population): MG-132 400 nM or Bortezomib 4 nM, 24-48 hours
Method: (§1) Reagents, antibodies, RT-PCR, cell lines and tissue culture, plasmids. Proteasome inhibitor (MG-132, Velcade®; each commercially available) treatments were performed using 400 nM MG-132 or 4 nM Bortezomib (Velcade®) for 24 hours. The drug was then removed by serial washes with PBS and the remaining viable cells were replated. Salubrinal treatments were performed using the drug at 5 or 10 μg/ml, as indicated, for 24 hours. RPMI8226 cells contain a c-MYC insertion on t(16;22)(q32;q11):der16; U266B1 cells (t(11;14)) were from ATCC. Cells were cultured according to ATCC recommendations. Antibodies (identified by the antigen specifically recognized): p-Rb, Rb, p-eIF2α, eIF2α, GCN2, p-GCN2, p-PKR and PKR from Cell Signaling (Beverly, Mass.), p-PERK and PERK from Santa Cruz Biotechnology (Santa Cruz, Calif.), BiP from BD (San Jose, Calif.), GAPDH from Calbiochem (Beverly, Mass.), and β-tubulin from Abcam (Cambridge, Mass.). Total RNA was extracted using Trizol (Invitrogen, Carlsbad, Calif.). Primer sequences were published previously (Sequeira, et al., PLoS ONE 2(7):e615 2007, incorporated herein by reference in its entirety). The pCLBabe-eIF2αS51D plasmid was provided by Dr. David Schubert (Salk Institute, La Jolla, Calif.) and can be constructed using known techniques. Transfection of RPMI8226 cells was performed using Amaxa technology according to the manufacturer's instructions (Gaithersburg, Md.).
Cell cycle analysis, label retention assay. Cell cycle analysis was performed using propidium iodide (PI)/RNAse staining buffer from BD according to the manufacturer's instruction. For label retention and viability quantification, cells were treated with proteasome inhibitors or DMSO for 24 hours, then stained with 50 nM CFDA/SE (Molecular Probes, Eugene, Oreg.) for 15 minutes and replated. Prior to analysis, cells were stained using Hoechst-33342 (10 μg/ml) for 15 minutes at 4° C. to determine cell viability. Cells were then fixed using 3% paraformaldehyde for 20 minutes and analyzed by flow cytometry (LSR-II from BD).

[4] = test system: K-562 chronic myeloid leukemia cells; experiment: Bortezomib-induced killing, with or without Salubrinal
[5] = test system: diffuse B-cell lymphoma U937 cells; experiment: as above; conditions: 4 nM Bortezomib
[6] = test system: RPMI8226 cells; experiment: Viability assay (trypan blue)
Method: as §1, with “Salubrinal treatments were performed using the drug at 5 or 10 μg/ml, as indicated, for 24 hours.” left out
(§2) Viability assay, Immunoblotting. Cell viability was assessed using trypan blue. Immunoblotting was performed using convention techniques, as described previously Aguirre-Ghiso, et al., Cancer Res. 63(7):1684-1695 2003, incorporated herein by reference in its entirety.

[7] = test system: eIF2α; experiment: Western blot for eIF2α phosphorylation in RPMI8226 cells; conditions: for eIF2α phosphorylation: single agent, acute phase (Salubrinal 8 hours; MG-132 8-24 hours)
Method: as §1, with “Salubrinal treatments were performed using the drug at 5 or 10 μg/ml, as indicated, for 24 hours.” left out
as §2
(§3) Image quantification and statistical analysis. Image quantification was performed using ImageJ from NIH. Statistical analyses were performed using Prism 4.0 from GraphPad Software (La Jolla, Calif.) and the Student's t-test.

[8] = test system: CHOP mRNA; experiment: RT-PCR for CHOP mRNA in RPMI8226 cells; conditions: acute combination of Salubrinal and Bortezomib (4 nM, 8 hours)
Method: as §1, with “Proteasome inhibitor (MG-132, Velcade®; each commercially available) treatments were performed using 400 nM MG-132 or 4 nM Bortezomib (Velcade®) for 24 hours.” left out, “Salubrinal treatments were performed using the drug at 5 or 10 μg/ml, as indicated, for 24 hours.” left out
as §3

[9] = test system: U266B1 cells; experiment: Viability assay (trypan blue); conditions: Salubrinal combined with MG-132 or Bortezomib, 24 hours
Method: as §1, with “Transfection of RPMI8226 cells was performed using Amaxa technology according to the manufacturer's instructions (Gaithersburg, Md.).” left out
Viability assay, Immunoblotting. Cell viability was assessed using trypan blue. […]

[10] = test system: U937 cells; experiment: Bortezomib-induced killing, with or without Salubrinal
[11] = Bortezomib combined with Salubrinal

Row | SMILES | induction of killing ([1]; Bortezomib alone) | induction of killing ([2]; Bortezomib alone) | cell death (sub-G0 population) [3] | sensitivity to Bortezomib ([4]; 4 nM Bortezomib) | sensitivity to Bortezomib [5] | absolute number of viable cells after drug washout and replating ([6]; RPMI8226, 400 nM MG-132 for 24 hours, then washed) | eIF2α phosphorylation [7] | number of cells in G0-G1 in cells surviving proteasome inhibition ([3]; MG-132 400 nM or Bortezomib 4 nM for 24 hours, then washout, control about 35%) | basal viability or growth ([6]; RPMI8226, 5 μM Salubrinal alone) | cell death ([6]; RPMI8226, Salubrinal combined with MG-132 or Bortezomib, 24 hours) | reduction in the number of viable cells ([6]; arrested cells surviving proteasome inhibition, 5 μM Salubrinal, 24 hours) | CHOP mRNA [8] | cell death [9] | p-eIF2α levels ([7]; Salubrinal combined with proteasome inhibitor, 8 hours) | induction of killing [1, 11] | induction of killing [2, 11] | enhancement of Bortezomib-induced killing by Salubrinal [4] | enhancement of Bortezomib-induced killing by Salubrinal [10]
1 | CC(C)C[C@H](NC(=O)[C@H](Cc1ccccc1)NC(=O)c1cnccn1)B(O)O [Bortezomib] | neither Bortezomib alone nor its combination with Salubrinal was effective | neither Bortezomib alone nor its combination with Salubrinal was effective | strongly induced cell death | intermediately sensitive | highly sensitive | – | – | – | – | – | – | – | – | – | – | – | – | –
2 | CC(C)C[C@@H](C=O)NC(=O)[C@H](CC(C)C)NC(=O)[C@H](CC(C)C)NC(=O)OCc1ccccc1 [MG-132] (Cbz-Leu-Leu-Leu-aldehyde) | – | – | strongly induced cell death | – | – | remained constant for 7 days | increased eIF2α-phosphorylation | 55-65% | – | – | – | – | – | – | – | – | – | –
3 | O=C(/C=C/c1ccccc1)NC(NC(=S)Nc1cccc2cccnc12)C(Cl)(Cl)Cl (centres unmarked) [Salubrinal] | – | – | – | – | – | – | increased phosphorylation of eIF2α | – | no significant induction of cell death; also recorded: no effect | 70-90% | approximately 10 fold | strong induction | 70-90% | highest levels of p-eIF2α | neither Bortezomib alone nor its combination with Salubrinal was effective | neither Bortezomib alone nor its combination with Salubrinal was effective | neither of these cell lines was susceptible | neither of these cell lines was susceptible
